Test results published in patent US4795743A, “2'-deamino-2'-hydroxyistamycin Bo derivatives of low toxicity” (Zaidan Hojin Biseibutsu Kagaku Kenkyu Kai, priority 1986, dated 1989).
Converted amounts (≈) assume the structure as drawn. Where two headings read alike, the source gives them in different places.

Key:
Bacillus anthracis = test: microbe, parasite or virus in culture; type: cell-based; conditions: 18 h, read-out: Minimum Growth Inhibitory Concentration
[1] = tested on: Staphylococcus aureus Smith; test: Antibacterial spectrum, standard serial dilution method; type: cell-based; conditions: read-out: Minimum Growth Inhibitory Concentration
[2] = tested on: Escherichia coli K-12 J5 R11-2; test: as above; type: cell-based; conditions: K12J5R112, 18 h, read-out: Minimum Growth Inhibitory Concentration
Serratia sp. SOU = test: as above; type: cell-based; conditions: read-out: Minimum Growth Inhibitory Concentration
[3] = tested on: gram-negative and gram-positive bacteria; test: Antibacterial activity, overall result in words; type: cell-based; conditions: overall statement in words
Proteus vulgaris OX19 = test: Antibacterial spectrum, standard serial dilution method; type: cell-based; conditions: read-out: Minimum Growth Inhibitory Concentration
[4] = tested on: Bacillus cereus ATCC 1-702; test: as above; type: cell-based; conditions: read-out: Minimum Growth Inhibitory Concentration
[5] = tested on: Pseudomonas aeruguinosa K-Ps 102; test: as above; type: cell-based, Pseudomonas aeruginosa; conditions: read-out: Minimum Growth Inhibitory Concentration
[6] = tested on: Micrococcus flavus FDA 16; test: as above; type: cell-based; conditions: read-out: Minimum Growth Inhibitory Concentration
[7] = tested on: Escherichia coli K-12 LA290 R64; test: as above; type: cell-based; conditions: K12LA290R64, 18 h, read-out: Minimum Growth Inhibitory Concentration
Salmonella typhi T-63 = test: as above; type: cell-based; conditions: Salmonella enterica, 18 h, read-out: Minimum Growth Inhibitory Concentration
[8] = tested on: Escherichia coli K-12 ML1410 R81; test: as above; type: cell-based; conditions: K12ML1410R81, 18 h, read-out: Minimum Growth Inhibitory Concentration
[9] = tested on: Pseudomonas maltophilia GN907; test: as above; type: cell-based; conditions: Stenotrophomonas maltophilia, Muller-Hinton medium, 37° C., 18 hours, read-out: Minimum Growth Inhibitory Concentration
[10] = tested on: Escherichia coli K-12 C600 R135; test: as above; type: cell-based; conditions: K12C600R135, E. coli K-12 C600 R135, Muller-Hinton medium, 37° C., 18 hours, read-out: Minimum Growth Inhibitory Concentration
Escherichia coli JR225 = test: as above; type: cell-based; conditions: JR225, 18 h, read-out: Minimum Growth Inhibitory Concentration
[11] = tested on: Bacillus subtilis NRRL B-558; test: as above; type: cell-based; conditions: read-out: Minimum Growth Inhibitory Concentration
[12] = tested on: Staphylococcus aureus Ap 01; test: as above; type: cell-based; conditions: read-out: Minimum Growth Inhibitory Concentration
Escherichia coli K-12 R5 = test: as above; type: cell-based; conditions: K12R5, 18 h, read-out: Minimum Growth Inhibitory Concentration
[13] = tested on: Pseudomonas aeruguinosa TI-13; test: as above; type: cell-based, Pseudomonas aeruginosa; conditions: read-out: Minimum Growth Inhibitory Concentration
Providencia sp. 2991 = test: as above; type: cell-based; conditions: read-out: Minimum Growth Inhibitory Concentration
[14] = tested on: Shibella flexneri 4b JS11811; test: as above; type: cell-based; conditions: 18 h, read-out: Minimum Growth Inhibitory Concentration
[15] = tested on: Klebsiella Pneumoniae PCI 602; test: as above; type: cell-based; conditions: read-out: Minimum Growth Inhibitory Concentration
Sarcina lutea PCI 1001 = test: as above; type: cell-based; conditions: Micrococcus luteus, read-out: Minimum Growth Inhibitory Concentration
Providencia sp. Pv16 = test: as above; type: cell-based; conditions: read-out: Minimum Growth Inhibitory Concentration
[16] = tested on: Pseudomonas aeruguinosa H11; test: as above; type: cell-based, Pseudomonas aeruginosa; conditions: Muller-Hinton medium, 37° C., 18 hours, read-out: Minimum Growth Inhibitory Concentration
[17] = tested on: resistant bacteria, Pseudomonas aeruginosa, resistant strains of gram-negative and gram-positive bacteria; conditions: background, earlier filings; cited from earlier work
[18] = KPS102, Pseudomonas aeruguinosa K-Ps 102, Muller-Hinton medium, 37° C., 18 hours
[19] = Micrococcus flavus, FDA16, 18 h
[20] = NRRLB558, Bacillus subtilis NRRL B-558, Muller-Hinton medium, 37° C., 18 hours
[21] = TI13, Pseudomonas aeruguinosa TI-13, Muller-Hinton medium, 37° C., 18 hours
[22] = S. aureus Smith, Muller-Hinton medium, 37° C., 18 hours
[23] = Proteus vulgaris OX19, Muller-Hinton medium, 37° C., 18 hours
[24] = ATCC1, Bacillus cereus ATCC 1-702, Muller-Hinton medium, 37° C., 18 hours
[25] = FDA16, Micrococcus flavus FDA 16, Muller-Hinton medium, 37° C., 18 hours
[26] = PCI1001, Sarcina lutea PCI 1001, Muller-Hinton medium, 37° C., 18 hours
[27] = Serratia sp. SOU, Muller-Hinton medium, 37° C., 18 hours
[28] = Providencia sp. Pv16, Muller-Hinton medium, 37° C., 18 hours
[29] = Klebsiella Pneumoniae PCI 602, Muller-Hinton medium, 37° C., 18 hours

SMILES | MIC (Bacillus anthracis) | MIC ([1]; 18 h) | MIC [2] | MIC (Serratia sp. SOU; Serratia, 18 h) | MIC (Proteus vulgaris OX19; Proteus vulgaris, OX19, 18 h) | MIC [5, 18] | MIC [6, 19] | MIC [7] | MIC (Salmonella typhi T-63) | MIC [8] | MIC [9] | MIC [10] | MIC (Escherichia coli JR225) | MIC [11, 20] | MIC ([12]; AP01, 18 h) | MIC (Escherichia coli K-12 R5) | MIC [13, 21] | MIC (Providencia sp. 2991; Providencia, SP.2991, 18 h) | MIC [14] | MIC [16] | other results
CNCC1CCC(O)C(OC2C(N)CC(O)C(N(C)C(=O)CCN)C2O)O1 (stereo not drawn) [Compound No. 4, 4-N-(β-Alanyl)-2'-deamino-2'-hydroxy-3-O-demethylistamycin Bo] | 1.56 µg/mL (≈ 4 µM) | 1.56 µg/mL (≈ 4 µM) | 0.78 µg/mL (≈ 2 µM) | 1.56 µg/mL (≈ 4 µM) | 1.56 µg/mL (≈ 4 µM) | 25 µg/mL (≈ 64 µM) | 3.13 µg/mL (≈ 8.02 µM) | 1.56 µg/mL (≈ 4 µM) | 0.78 µg/mL (≈ 2 µM) | 6.25 µg/mL (≈ 16 µM) | > 100 µg/mL | 3.13 µg/mL (≈ 8.02 µM) | 1.56 µg/mL (≈ 4 µM) | 0.78 µg/mL (≈ 2 µM) | 3.13 µg/mL (≈ 8.02 µM) | 1.56 µg/mL (≈ 4 µM) | 12.5 µg/mL (≈ 32 µM) | 3.13 µg/mL (≈ 8.02 µM) | 6.25 µg/mL (≈ 16 µM) | 12.5 µg/mL (≈ 32 µM) | antibacterial activity [3]: very much good antibacterial activity; antibacterial activity ([3]; listed as 4-N-(β-alanyl)-2'-deamino-2'-hydroxy-3-O-demethylistamycin Bo): antibacterial activity as high as that of istamycin B; MIC ([4]; Bacillus cereus, ATCC1, 18 h): 6.25 µg/mL (≈ 16 µM); MIC ([15]; Klebsiella pneumoniae, 18 h): 3.13 µg/mL (≈ 8.02 µM); MIC (Sarcina lutea PCI 1001; PCI1001, 18 h): 1.56 µg/mL (≈ 4 µM); MIC (Providencia sp. Pv16; Providencia, SP.PV16, 18 h): 1.56 µg/mL (≈ 4 µM)
CNCC1CCC(O)C(OC2C(N)CC(OC)C(N(C)C(=O)CN)C2O)O1 (stereo not drawn) [Compound No. 1, 2'-Deamino-2'-hydroxyistamycin B] | 12.5 µg/mL (≈ 32 µM) | – | 1.56 µg/mL (≈ 4 µM) | 6.25 µg/mL (≈ 16 µM) | – | > 100 µg/mL | – | 3.13 µg/mL (≈ 8.02 µM) | 1.56 µg/mL (≈ 4 µM) | 6.25 µg/mL (≈ 16 µM) | > 100 µg/mL | 3.13 µg/mL (≈ 8.02 µM) | 3.13 µg/mL (≈ 8.02 µM) | 3.13 µg/mL (≈ 8.02 µM) | 6.25 µg/mL (≈ 16 µM) | 3.13 µg/mL (≈ 8.02 µM) | 100 µg/mL (≈ 256 µM) | 12.5 µg/mL (≈ 32 µM) | 12.5 µg/mL (≈ 32 µM) | > 100 µg/mL | MIC [1, 22]: 3.13 µg/mL (≈ 8.02 µM); MIC (Proteus vulgaris OX19; [23]): 3.13 µg/mL (≈ 8.02 µM); MIC [4, 24]: 50 µg/mL (≈ 128 µM); MIC [6, 25]: 25 µg/mL (≈ 64 µM); MIC ([15]; Klebsiella pneumoniae, 18 h): 6.25 µg/mL (≈ 16 µM); MIC (Sarcina lutea PCI 1001; [26]): 3.13 µg/mL (≈ 8.02 µM); MIC (Providencia sp. Pv16; Providencia, SP.PV16, 18 h): 6.25 µg/mL (≈ 16 µM)
CNCC1CCC(O)C(OC2C(N)CC(O)C(N(C)C(=O)CN)C2O)O1 (stereo not drawn) [Compound No. 2, 2'-Deamino-2'-hydroxy-3-O-demethylistamycin B] | 1.56 µg/mL (≈ 4.14 µM) | 1.56 µg/mL (≈ 4.14 µM) | 1.56 µg/mL (≈ 4.14 µM) | – | 1.56 µg/mL (≈ 4.14 µM) | – | 12.5 µg/mL (≈ 33.2 µM) | 3.13 µg/mL (≈ 8.31 µM) | 0.78 µg/mL (≈ 2.07 µM) | 6.25 µg/mL (≈ 16.6 µM) | > 100 µg/mL | 3.13 µg/mL (≈ 8.31 µM) | 1.56 µg/mL (≈ 4.14 µM) | 3.13 µg/mL (≈ 8.31 µM) | 6.25 µg/mL (≈ 16.6 µM) | 3.13 µg/mL (≈ 8.31 µM) | – | 6.25 µg/mL (≈ 16.6 µM) | 12.5 µg/mL (≈ 33.2 µM) | 25 µg/mL (≈ 66.4 µM) | MIC (Serratia sp. SOU; [27]): 3.13 µg/mL (≈ 8.31 µM); MIC ([4]; Bacillus cereus, ATCC1, 18 h): 6.25 µg/mL (≈ 16.6 µM); MIC ([5]; Pseudomonas, KPS102, 18 h): 12.5 µg/mL (≈ 33.2 µM); MIC ([13]; Pseudomonas, TI13, 18 h): 12.5 µg/mL (≈ 33.2 µM); MIC ([15]; Klebsiella pneumoniae, 18 h): 6.25 µg/mL (≈ 16.6 µM); MIC (Sarcina lutea PCI 1001; PCI1001, 18 h): 1.56 µg/mL (≈ 4.14 µM); MIC (Providencia sp. Pv16; [28]): 3.13 µg/mL (≈ 8.31 µM)
CNCC1CCC(O)C(OC2C(N)CC(OC)C(N(C)C(=O)CCN)C2O)O1 (stereo not drawn) [Compound No. 3, 4-N-(β-Alanyl)-2'-deamino-2'-hydroxyistamycin Bo] | 3.13 µg/mL (≈ 7.74 µM) | 3.13 µg/mL (≈ 7.74 µM) | 3.13 µg/mL (≈ 7.74 µM) | 3.13 µg/mL (≈ 7.74 µM) | 3.13 µg/mL (≈ 7.74 µM) | 50 µg/mL (≈ 124 µM) | 6.25 µg/mL (≈ 15.5 µM) | 3.13 µg/mL (≈ 7.74 µM) | 1.56 µg/mL (≈ 3.86 µM) | 25 µg/mL (≈ 61.8 µM) | > 100 µg/mL | 3.13 µg/mL (≈ 7.74 µM) | 3.13 µg/mL (≈ 7.74 µM) | – | 6.25 µg/mL (≈ 15.5 µM) | 3.13 µg/mL (≈ 7.74 µM) | 100 µg/mL (≈ 247 µM) | – | 6.25 µg/mL (≈ 15.5 µM) | 100 µg/mL (≈ 247 µM) | MIC [4, 24]: 25 µg/mL (≈ 61.8 µM); MIC ([11]; Bacillus subtilis, NRRLB558, 18 h): 3.13 µg/mL (≈ 7.74 µM); MIC (Providencia sp. 2991; Providencia sp. 2991, Muller-Hinton medium, 37° C., 18 hours): 12.5 µg/mL (≈ 30.9 µM); MIC [15, 29]: 12.5 µg/mL (≈ 30.9 µM); MIC (Sarcina lutea PCI 1001; PCI1001, 18 h): 3.13 µg/mL (≈ 7.74 µM); MIC (Providencia sp. Pv16; Providencia, SP.PV16, 18 h): 3.13 µg/mL (≈ 7.74 µM)
CNCC1CCC(N)C(OC2C(N)CC(OC)C(N(C)C(=O)CN)C2O)O1 (stereo not drawn) [Istamycin B, istamycin B] | 0.78 µg/mL (≈ 2 µM) | – | 0.78 µg/mL (≈ 2 µM) | – | – | 25 µg/mL (≈ 64.2 µM) | – | 1.56 µg/mL (≈ 4.01 µM) | 0.39 µg/mL (≈ 1 µM) | 1.56 µg/mL (≈ 4.01 µM) | > 100 µg/mL | 12.5 µg/mL (≈ 32.1 µM) | 0.78 µg/mL (≈ 2 µM) | 0.78 µg/mL (≈ 2 µM) | – | 0.78 µg/mL (≈ 2 µM) | 25 µg/mL (≈ 64.2 µM) | 3.13 µg/mL (≈ 8.04 µM) | 3.13 µg/mL (≈ 8.04 µM) | 50 µg/mL (≈ 128 µM) | MIC [1, 22]: 0.39 µg/mL (≈ 1 µM); MIC (Serratia sp. SOU; [27]): 25 µg/mL (≈ 64.2 µM); MIC (Proteus vulgaris OX19; [23]): 0.78 µg/mL (≈ 2 µM); MIC [4, 24]: 6.25 µg/mL (≈ 16 µM); MIC [6, 25]: 25 µg/mL (≈ 64.2 µM); antibacterial activity [17]: highest antibacterial activity; MIC ([12]; AP01, S. aureus Ap 01, Muller-Hinton medium, 37° C., 18 hours): 1.56 µg/mL (≈ 4.01 µM); MIC [15, 29]: 1.56 µg/mL (≈ 4.01 µM); MIC (Sarcina lutea PCI 1001; [26]): 0.39 µg/mL (≈ 1 µM); MIC (Providencia sp. Pv16; [28]): 1.56 µg/mL (≈ 4.01 µM)
